According to paper PMC7394005, “Assessing the Selectivity of FXR, LXRs, CAR, and RORγ Pharmaceutical Ligands With Reporter Cell Lines” (Frontiers in Pharmacology, 2020):
Like-named read-outs stand apart in the source and are kept apart here.

How the values were obtained:
Format in all cases: cell-based
human CAR WT = target: T1, human CAR WT (Homo sapiens, UniProt Q14994); experiment: HG5LN GAL4-CAR WT reporter cell line, inhibition of constitutive activity; conditions: for IC50: inhibition of constitutive activity; for remaining activity at 10 µM: HG5LN, read-out: CAR WT % min act
T1 construct: CAR (M76-S348); expressed in transfected cells; host or cells: HG5LN (HeLa cells carrying the (GAL4RE)5-βGlob-Luc-SVNeo reporter)
T1 sequence (Q14994 76-348 isoform Q14994-2): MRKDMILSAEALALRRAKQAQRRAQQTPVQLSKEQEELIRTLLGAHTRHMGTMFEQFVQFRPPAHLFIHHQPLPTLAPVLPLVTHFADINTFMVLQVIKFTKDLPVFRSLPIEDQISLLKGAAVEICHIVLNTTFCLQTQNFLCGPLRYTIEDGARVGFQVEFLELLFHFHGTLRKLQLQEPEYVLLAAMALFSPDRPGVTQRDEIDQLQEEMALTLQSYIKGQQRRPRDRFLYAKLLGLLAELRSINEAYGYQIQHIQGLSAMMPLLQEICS
Text: (§1) To construct GAL4-NR chimeras, individual LBDs of human FXR (R193-Q486), LXRα (A187-E447), LXRβ (G199-E461), CAR (M76-S348), and RORγ (S97-K518) were amplified by PCR with primers containing XhoI and SacI restriction sites (FXR), XhoI and BamHI (LXRs, CAR, RORγ) and inserted in pSG5-GAL4(DBD)-puromycin plasmid. To construct GAL4-CAR (+ APYLT) (M76-S353), the five amino acids APYLT were inserted by overlap extension PCR between amino acids P270 and D271 of CAR.
(§2) To characterize the specificity of chemicals for human FXR, LXRα, LXRβ, CAR and RORγ, we established in a similar manner HG5LN FXR, LXRα, LXRβ, CAR WT, CAR (APYLT) and RORγ reporter cell lines. […] These cells were stably transfected by pSG5-GAL4 (DBD)-NRs (LBD)-puromycin plasmid and selected in presence of 0.5 µg/ml puromycin. […] From each HG5LN NR cells, 5 to 10 clones were chosen for their ligand inducibility of luciferase expression. […] The most inducible clones were expanded and rechecked for inducibility and aliquots were frozen at different passages. One clone per receptor was maintained in culture and used for ligand screening. HG5LN cells were cultured in Dulbecco’s modified Eagle’s medium (DMEM): Nutrient Mixture F-12 (DMEM/F-12) containing phenol red and 1 g/l glucose and supplemented with 5% fetal bovine serum, 100 units/ml of penicillin, 100 µg/ml of streptomycin and 1 mg/ml geneticin, in 5% CO2 humidified atmosphere at 37°C. Stably transfected cell lines derived from HG5LN cells were cultured in the same culture medium supplemented with 0.5 µg/ml puromycin.
(§3) Individual reporter cell lines were seeded at a density of 40,000 cells per well in 96-well white opaque tissue culture plates (Greiner CellStar) in Dulbecco’s Modified Eagle Medium: Nutrient Mixture F-12 (DMEM/F-12) without phenol red and 1 g/l glucose and supplemented with 5% stripped fetal bovine serum, 100 units/ml of penicillin, 100 µg/ml of streptomycin (test medium). Chemicals to be tested were added 24h later, and cells were incubated at 37°C for 16h. Experiments were performed in quadruplicates. At the end of the incubation period, culture medium was replaced with test medium containing 0.3 mM luciferin solution. Luciferase activity was measured for 2s in intact living cells after 10 min stabilization using a Micro Beta Wallac luminometer (PerkinElmer). EC50 values were calculated using GraphPad Prism (GraphPad Software Inc).
(§4) Chemicals tested for agonism on FXR, LXRs, CAR (+ APYLT), PXR, and antagonism on CAR and RORγ were tested alone, without addition of any other ligand.
(§5) In the transactivation assay, each compound was tested at various concentrations in three independent experiments at least. For each experiment, tests were performed in quadruplicates for each concentration, and data are expressed by means values with standard deviations. Individual agonist dose–response curves, in the absence and presence of antagonist, were fitted using the sigmoid dose-response function of a graphics and statistics software program (GraphPad Prism, version 5.0). EC50 (effective concentration for half-maximal luciferase activity) and IC50 (half-maximal inhibitory concentration) values were calculated from equations used to fit the data in this graphic software. Transactivation data are presented as EC50 and IC50 values for each compound tested. To analyze significances, we compared individual compound treatments with controls using one-way analysis of variance (ANOVA) with the help of GraphPad Prism software.

human LXRα [1] = target: T2, human LXRα (Homo sapiens, UniProt Q13133); experiment: HG5LN GAL4-LXRα reporter cell line, antagonist mode in presence of T0901317; conditions: for LXRα (T0901317 20 nM) % min act: in presence of T0901317 20 nM (80% of maximal activity), at 10^-5 M (10^-6 M *, 3 10^-6 M **)
T2 construct: LXRα (A187-E447); expressed in transfected cells; host or cells: HG5LN (HeLa cells carrying the (GAL4RE)5-βGlob-Luc-SVNeo reporter)
T2 sequence (Q13133 187-447): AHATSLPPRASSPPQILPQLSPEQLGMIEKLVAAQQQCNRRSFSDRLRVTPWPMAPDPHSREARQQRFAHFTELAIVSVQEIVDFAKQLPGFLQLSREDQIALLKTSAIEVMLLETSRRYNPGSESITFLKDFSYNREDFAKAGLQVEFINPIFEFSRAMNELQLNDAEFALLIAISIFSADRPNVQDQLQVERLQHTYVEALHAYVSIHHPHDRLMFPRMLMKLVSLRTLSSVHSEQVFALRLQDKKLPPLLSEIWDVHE
Text: as §1, §2, §3, §4, §5

human RORγ = target: T3, human RORγ (Homo sapiens, UniProt P51449); experiment: HG5LN GAL4-RORγ reporter cell line, agonist mode in presence of SR2211; conditions: in presence of SR2211 1 mM, NE = No effect; for EC50: read-out: RORγ (SR2211 1 mM) EC50
T3 construct: RORγ (S97-K518); expressed in transfected cells; host or cells: HG5LN (HeLa cells carrying the (GAL4RE)5-βGlob-Luc-SVNeo reporter)
T3 sequence (P51449 97-518): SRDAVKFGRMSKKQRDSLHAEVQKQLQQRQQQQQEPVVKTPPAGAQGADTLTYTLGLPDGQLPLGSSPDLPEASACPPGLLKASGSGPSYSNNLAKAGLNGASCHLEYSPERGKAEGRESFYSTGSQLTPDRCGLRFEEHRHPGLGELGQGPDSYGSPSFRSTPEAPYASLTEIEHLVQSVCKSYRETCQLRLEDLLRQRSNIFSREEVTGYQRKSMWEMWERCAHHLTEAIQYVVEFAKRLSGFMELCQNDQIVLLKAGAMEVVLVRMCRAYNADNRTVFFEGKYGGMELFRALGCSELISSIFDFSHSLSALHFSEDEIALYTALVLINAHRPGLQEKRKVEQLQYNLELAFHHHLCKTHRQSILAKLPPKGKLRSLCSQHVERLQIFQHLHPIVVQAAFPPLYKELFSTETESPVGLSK
Text: as §1, §2, §3, §4, §5

human LXRα [2] = target: T2, human LXRα; experiment: HG5LN GAL4-LXRα reporter cell line, agonist mode
Text: as §1, §2, §3, §4, §5

[3] = tested alone, constitutive activity = 100%, at 10^-5 M (10^-6 M *, 3 10^-6 M **), NE = No effect
[4] = read-out: LXRα (T0901317 20 nM) IC50, in presence of T0901317 20 nM, NE = No effect
[5] = HG5LN GAL4-LXRα cells, tested alone, NE = No effect, read-out: LXRα EC50

| Compound | IC50 (human CAR WT; tested alone, NE = No effect) [µM] | CAR WT % min act (human CAR WT; [3]) [%] | IC50 (human LXRα [1]; [4]) [µM] | EC50 (human RORγ) [µM] | EC50 (human LXRα [2]; [5]) [µM] | RORγ (SR2211 1 mM) % max act (human RORγ; 100% = constitutive activity, DMSO 56 ± 5, at 10^-5 M (10^-6 M *, 3 10^-6 M **)) [%] | remaining activity at 10 µM (human CAR WT) [%] | IC50 (human LXRα [1]) [µM] | LXRα (T0901317 20 nM) % min act (human LXRα [1]; NE = No effect) [%] | remaining activity at 10 µM (human CAR WT; [3]) [%] | EC50 (human LXRα [2]) [µM] | LXRα % max act (human LXRα [2]; maximal luciferase activity at 10^-5 M (10^-6 M for * and 3 10^-6 M for ** compounds), 100% = 1 µM T0901317, DMSO 8 ± 1, NE = No effect) [%] |
| --- | --- | --- | --- | --- | --- | --- | --- | --- | --- | --- | --- | --- |
| Cc1oc2ccccc2c1CNC(=O)NCc1cccs1 [S07662] | 1.06 ± 0.063 | 21 | > 10 | > 10 | > 10 | – | – | – | – | – | – | – |
| O=C(Nc1ccc(C(O)(C(F)(F)F)C(F)(F)F)cc1)c1ccccc1Cl [SR0987] | > 10 | – | > 10 | – | > 10 | – | – | – | – | – | – | – |
| CC(=O)Nc1nc(C)c(S(=O)(=O)Nc2ccc(C(O)(C(F)(F)F)C(F)(F)F)cc2)s1 [SR1001] | > 10 | – | > 10 | – | > 10 | – | – | – | – | – | – | – |
| O=C(Nc1ccc(C(O)(C(F)(F)F)C(F)(F)F)cc1)c1ccc(C(F)(F)F)cc1 [SR1078] | > 10 | – | > 10 | 2.09 ± 0.131 | > 10 | 75 | – | – | – | – | – | – |
| CCOC(=O)c1ccc(CN(Cc2ccc(-c3cccc(S(C)(=O)=O)c3)cc2)S(=O)(=O)c2c(C)cc(C)cc2C)o1 [SR9238] | > 10 | – | – | > 10 | – | – | 77 | 0.026 ± 0.005 | 2 | – | – | – |
| Cc1cc(C)c(S(=O)(=O)N(CCc2cccc(Br)c2)Cc2ccc(-c3cccc(S(C)(=O)=O)c3)cc2)c(C)c1 [SR9243] | 8.75 ± 3.69 | – | – | > 10 | – | – | – | 0.56 ± 0.099 | 2 | 65 | – | – |
| CCOP(=O)(OCC)C(=Cc1cc(C(C)(C)C)c(O)c(C(C)(C)C)c1)P(=O)(OCC)OCC [SR12813] | > 10 | – | > 10 | > 10 | > 10 | – | – | – | – | – | – | – |
| Fc1ccc(-c2c3cccc(C(F)(F)F)c3nn2Cc2ccc(F)cc2Cl)cc1 [WAY252623] | > 10 | – | – | > 10 | – | – | – | – | – | – | 0.595 ± 0.068 | 67 |
| SPA70 | > 10 | – | > 10 | > 10 | > 10 | – | – | – | – | – | – | – |
